Broadly, the EC50 is the concentration that produces a half-maximal response.

Structures can show the parent of a compound that is named as a salt. Where two headings read alike, the source gives them in different places.

A short description of one data set: net positive charge. It is filed as physicochemical. The following applies: for Net (+) Charge: Table 1, at physiological pH.
Data set [1] has as its target T1, parathyroid cell calcium receptor (Bos taurus, UniProt P35384).
T1 sequence (P35384 21-1085 limits assumed): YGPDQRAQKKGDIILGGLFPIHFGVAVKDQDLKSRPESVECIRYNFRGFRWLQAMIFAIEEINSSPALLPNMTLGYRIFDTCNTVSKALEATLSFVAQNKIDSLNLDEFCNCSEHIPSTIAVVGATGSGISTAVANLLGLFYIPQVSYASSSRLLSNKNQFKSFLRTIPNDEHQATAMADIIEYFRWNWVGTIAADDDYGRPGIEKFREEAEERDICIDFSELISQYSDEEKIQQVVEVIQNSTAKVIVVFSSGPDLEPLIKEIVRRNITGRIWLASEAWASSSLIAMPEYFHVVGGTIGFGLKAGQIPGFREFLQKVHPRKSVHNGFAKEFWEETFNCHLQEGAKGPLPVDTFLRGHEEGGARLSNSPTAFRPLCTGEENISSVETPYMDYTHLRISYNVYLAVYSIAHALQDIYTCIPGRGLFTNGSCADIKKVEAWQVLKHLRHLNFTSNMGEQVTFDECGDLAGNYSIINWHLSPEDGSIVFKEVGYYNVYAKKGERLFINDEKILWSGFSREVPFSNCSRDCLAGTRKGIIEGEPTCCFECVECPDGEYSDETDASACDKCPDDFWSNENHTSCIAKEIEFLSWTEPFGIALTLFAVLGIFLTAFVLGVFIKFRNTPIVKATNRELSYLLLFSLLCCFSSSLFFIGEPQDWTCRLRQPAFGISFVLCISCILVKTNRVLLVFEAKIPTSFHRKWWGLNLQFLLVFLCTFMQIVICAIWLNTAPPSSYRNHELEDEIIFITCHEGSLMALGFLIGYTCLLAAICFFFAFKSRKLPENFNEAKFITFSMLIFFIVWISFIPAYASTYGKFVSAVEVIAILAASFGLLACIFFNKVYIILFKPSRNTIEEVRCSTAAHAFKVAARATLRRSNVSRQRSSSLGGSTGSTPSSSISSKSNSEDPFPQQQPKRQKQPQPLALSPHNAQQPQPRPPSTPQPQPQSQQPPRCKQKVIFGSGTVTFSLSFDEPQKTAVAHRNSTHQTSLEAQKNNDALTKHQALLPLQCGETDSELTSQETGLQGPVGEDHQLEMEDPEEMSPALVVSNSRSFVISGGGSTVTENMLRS
Put plainly: cell-based. Conditions: for effect on intracellular Ca^2+: 500 μM; for effect on [Ca^2+]i response to extracellular Mg^2+: ionomycin 1 μM, 1799 5 μM; for effect on basal [Ca^2+]i or increases evoked by extracellular Ca^2+: 1 μM. It is filed as cell-based.
Procedure: For example,.bovine parathyroid cells loaded with fura-2 are initially suspended in buffer containing 0.5 mM CaCl2. A test substance is added to the cuvette in a small volume (5-15 μl) and changes in the fluorescence signal are measured. Cumulative increases in the concentration of the test substance are made in the cuvette until some predetermined concentration is achieved or no further changes in fluorescence are noted.
This section describes procedures used to obtain and treat parathyroid cells from calves and humans. […] Human parathyroid glands, were obtained from patients undergoing surgical removal of parathyroid tissue for primary or uremic hyperparathyroidism (uremic HPT), and were treated similarly to bovine tissue.
Glands were trimmed of excess fat and connective tissue and then minced with fine scissors into cubes approximately 2-3 mm on a side. Dissociated parathyroid cells were prepared by collagenase digestion and then purified by centrifugation in Percoll buffer. The resultant parathyroid cell preparation was essentially devoid of red blood cells, adipocytes, and capillary tissue as assessed by phase contrast microscopy and Sudan black B staining. Dissociated and purified parathyroid cells were present as small clusters containing 5 to 20 cells.
The cells were then transferred to plastic flasks (75 or 150 cm^2 ; Falcon) and incubated overnight at 37° C. in a humid atmosphere of 5% CO2. No serum is added to these overnight cultures, since its presence allows the cells to attach to the plastic, undergo proliferation, and dedifferentiate. Cells cultured under the above conditions were readily removed from the flasks by decanting, and show the same viability as freshly prepared cells.
The cells were then pelleted, resuspended in the same buffer, but lacking the ester, and incubated a further 15 minutes at 37° C. The cells were subsequently washed twice with PCB containing 0.5 mM CaCl2 and 0.5% BSA and maintained at room temperature (about 20° C.). Immediately before use, the cells were diluted five-fold with prewarmed 0.5mM CaCl2 -PCB to obtain a final BSA concentration of 0.1%. The concentration of cells in the cuvette used for fluorescence recording was 1-2×10^6 /ml.
The fluorescence of indicator-loaded cells was measured at 37° C. in a spectrofluorimeter (Biomedical Instrumentation Group, University of Pennsylvania, Philadelphia, Pa.) equipped with a thermostated cuvette holder and magnetic stirrer using excitation and emission wavelengths of 340 and 510 nm, respectively. […] Leakage of dye is dependent on temperature and most occurs within the first 2 minutes after warming the cells in the cuvette. Dye leakage increases only very slowly thereafter. To correct the calibration for dye leakage, cells were placed in the cuvette and stirred at 37° C. for 2-3 minutes. The cell suspension was then removed, the cells pelleted, and the supernatant returned to a clean cuvette. […] This estimate was subtracted from the apparent Fmin.
Dissociated bovine parathyroid cells were purified on gradients of Percoll and cultured overnight in serum-free medium. […] That is,

Where [2] appears, read: Table 8 (arylalkylamine calcimimetics), parathyroid cell calcium receptor, read-out: EC50.
Where [3] appears, read: parathyroid cell calcium receptor, […], read-out: EC50.
The mark [4] stands for this setting: Table 7, parathyroid cell calcium receptor, read-out: EC50.
Where [5] appears, read: Table 6, bovine parathyroid cells, read-out: EC50 PARATHYROID

On to `N=C(N)NCCC[C@H](N)C(=O)NCCCNCCCNCCCCCNC(=O)[C@H](CC(N)=O)NC(=O)Cc1c[nH]c2cccc(O)c12` [Argiotoxin-659, reference compound], for which the “Net (+) Charge” value in “net positive charge” is recorded as “+4”. Further, the concentration giving a half-maximal response (EC50) was 300000 nM in data set [1] and 300000 nM in data set [1] (EC50 for mobilizing intracellular Ca^2+, bovine parathyroid cells). In data set [1] (100 to 300 μM), the “increases in [Ca^2+]i” value is “evoked transient increases in [Ca^2+ ]i”.
`NC[C@H]1O[C@H](O[C@H]2[C@H](O)[C@@H](O[C@H]3O[C@H](CO)[C@@H](O)[C@H](N)[C@H]3O)[C@H](N)C[C@@H]2N)[C@H](N)[C@@H](O)[C@@H]1O` [Bekanamycin]: in the data set “net positive charge”, the “Net (+) Charge” value was “+5” and the “net positive charge at pH 7.3” value is given as “+5”.
Consider `COc1cccc([C@@H](C)NCCCc2cccc(C)c2)c1` [Compound 12V, (R)-N-3-(3-Methylphenyl)-1-propyl-3-methoxy-α-methylbenzylamine hydrochloride], for which the EC50 was 420 nM in data set [1] (setting [2]) and less than 5000 nM in data set [1] (setting [3]).
For `CCCOc1ccc(CN[C@H](C)c2cccc3ccccc23)cc1` [Compound 13Q], the EC50 in data set [1] (setting [2]) is roughly 800 nM.
For `C[C@@H](NCc1ccc(Cl)c(Cl)c1)c1cccc2ccccc12` [Compound 13R], the half-maximal effective concentration (EC50) in data set [1] (setting [2]) amounted to 250 nM.
On the same count and under the same terms, to `C[C@@H](NCc1ccc(C(F)(F)F)cc1)c1cccc2ccccc12` [Compound 13S] belongs less than 130 nM; to `COc1ccc(CN[C@H](C)c2cccc3ccccc23)cc1` [Compound 13U], 190 nM.
The same measure, in the same setting: to `C[C@@H](NCc1ccc2c(c1)OCCO2)c1cccc2ccccc12` [Compound 13X] belongs less than 750 nM.
The same measure, in the same setting: to `COc1ccc([C@H](C)N[C@H](C)c2cccc3ccccc23)cc1` [Compound 14V] belongs 1700 nM; to `COc1ccc(CN[C@H](C)c2cccc3ccccc23)cc1C` [Compound 16Q], 40 nM; to `C[C@@H](NCc1ccc2c(c1)OCO2)c1cccc2ccccc12` [Compound 16R], 360 nM.
As for `COc1ccc(CN[C@H](C)c2cccc3ccccc23)cc1F` [Compound 16T], the EC50 in data set [1] (setting [2]) amounted to 40 nM.
Still for that read-out and setting: to `Cc1ccc(CN[C@H](C)c2cccc3ccccc23)cc1C` [Compound 16V] belongs less than 130 nM.
Regarding `CCOc1ccc(CN[C@H](C)c2cccc3ccccc23)cc1` [Compound 16W], the EC50 in data set [1] (setting [2]) amounted to 590 nM.
As for `CSc1ccc(CN[C@H](C)c2cccc3ccccc23)cc1` [Compound 16X], the EC50 in data set [1] (setting [2]) turned out to be 100 nM.
As to `COc1ccc([C@@H](C)N[C@H](C)c2cccc3ccccc23)cc1Cl` [Compound 17X, (R,R)-N-(1-Ethyl-4'-methoxy-3'-chlorophenyl)-1-(1-naphthylethyl)amine], the EC50 in data set [1] (setting [2]) was 20 nM; in data set [1] (setting [3]), less than 5000 nM.
For the compound `COc1cccc([C@@H](C)NC2CCN(Cc3ccccc3)CC2)c1` [Compound 20F], in data set [1] (setting [2]), the half-maximal effective concentration (EC50) is less than 1000 nM.
Still for that read-out and setting: with `COc1ccc(CCCN[C@H](C)c2cccc(OC)c2)cc1` [Compound 20I] the figure was greater than 1000 nM; with `COc1cccc([C@@H](C)NCCCc2ccc(OC)c(OC)c2)c1` [Compound 20J], greater than 3000 nM.
`COc1cccc([C@H](C)NCCCc2ccc(OC)c(OC)c2)c1` [Compound 20K]: in data set [1] (setting [4]), the EC50 was greater than 30000 nM.
In the case of `COc1cccc(C(C)NC(C)CCc2ccccc2)c1` (stereo not drawn) [Compound 20R], the EC50 in data set [1] (setting [2]) was 2400 nM.
On the same count and under the same terms, with `CCC(CCc1ccccc1)NC(C)c1cccc(OC)c1` (stereo not drawn) [Compound 20S] the figure was 4200 nM; with `COc1cccc([C@@H](C)N[C@H](C)CCc2ccccc2)c1` [Compound 21D], 3000 nM.
Still for that read-out and setting: to `C[C@H](CCc1ccccc1)N[C@H](C)c1cccc2ccccc12` [Compound 21F] belongs 380 nM; to `C[C@@H](CCc1ccccc1)N[C@H](C)c1cccc2ccccc12` [Compound 21G], 1100 nM; to `COc1cccc([C@@H](C)NCCCc2ccccc2C(F)(F)F)c1` [Compound 21O], 260 nM.
As for `COc1cccc([C@@H](C)NCCCc2ccc(C(F)(F)F)cc2)c1` [Compound 21Q], in data set [1] (setting [2]), the half-maximal effective concentration (EC50) amounted to 1400 nM.
For the compound `NC[C@H]1O[C@H](O[C@H]2[C@H](O)[C@@H](O[C@H]3O[C@H](CO)[C@@H](O)[C@H](N)[C@H]3O)[C@H](N)C[C@@H]2N)[C@H](O)[C@@H](O)[C@@H]1O` [Kanamycin, reference compound], in the data set “net positive charge”, the “net positive charge at pH 7.3” value is on record as “~+4.5”. Further, in data set [1], the “effect on intracellular Ca^2+” value is “without effect”.
In the case of `NCCCN(CCCN)CCCN(CCCN)CCCCN(CCCN)CCCN(CCCN)CCCN` [NPS 381, N^1, N^1, N^5, N^10, N^14, N^14-hexakis-(3-aminopropyl) spermine], in “net positive charge”, the “Net (+) Charge” value is “+10”.
For `NCCCN(CCCN)CCCNCCCCNCCCN(CCCN)CCCN` [NPS 382, N^1, N^1, N^5, N^14, N^14-tetrakis-(3-aminopropyl)spermine], the “Net (+) Charge” value in the data set “net positive charge” is given as “+8”.
The same measure, in the same setting: with `NCCCN1CCCN(CCCN)CCN(CCCN)CCCN(CCCN)CC1` [NPS 383] the entry was “+8”.
`COc1cccc([C@H](C)NCCCc2ccccc2)c1` [NPS S-467]: the EC50 in data set [1] (setting [5]) and in data set [1] (setting [4]) was greater than 30000 nM each time.
Turning to `CCCCCCCCCCCCCC(=O)O[C@@H]1[C@@H](C)[C@@]2(O)[C@@H](C=C(CO)C[C@]3(O)C(=O)C(C)=C[C@@H]23)[C@@H]2C(C)(C)[C@]12OC(C)=O` [PMA, phorbol myristate acetate, reference compound], the “effect on mobilization of intracellular Ca^2+ elicited by molecular polycations” value in data set [1] was “depressed”.
As for `CCCC(=O)N[C@@H](Cc1ccc(O)cc1)C(=O)NCCCCNCCCNCCCN` [Philanthotoxin-433, reference compound], in data set [1], the “effect on intracellular Ca^2+” value is “without effect”.
With `C[C@@H](NCCC(c1ccccc1)c1ccccc1)c1ccccc1` [R-Fendiline], the EC50 in data set [1] (setting [5]) and in data set [1] (setting [4]) was 9000 nM throughout.
Turning to `C[C@H](NCCC(c1ccccc1)c1ccccc1)c1ccccc1` [S-Fendiline], the EC50 in data set [1] (setting [4]) is greater than 15000 nM.
As to `[H]/N=C(/N)N[C@H]1[C@H](O)[C@@H](O)[C@H](O[C@@H]2O[C@@H](C)[C@](O)(C=O)[C@H]2O[C@@H]2O[C@@H](CO)[C@H](O)[C@@H](O)[C@@H]2NC)[C@@H](N/C(N)=N\[H])[C@@H]1O` [Streptomycin], in “net positive charge”, the “Net (+) Charge” value was “+3” and the “net positive charge at pH 7.3” value is recorded as “+3”.
`NCCNCCNCCNCCN` [TEPA, Tetraethylenepentamine]: in “net positive charge”, the “Net (+) Charge” value is given as “+5”.
For the compound `NCCNCCNCCN` [TETA, Triethylenetramine], in “net positive charge”, the “Net (+) Charge” value was “+4”.
Turning to `COc1ccc([C@@H]2Sc3ccccc3N(CCN(C)C)C(=O)[C@@H]2OC(C)=O)cc1` [diltiazem, reference compound], in data set [1] (100 μM), the “effective at 100 μM (as verapamil and D-600)” value is on record as “effective”.
Consider `C[C@H](CCC(=O)O)C[C@H](C)C[C@H](C)C(=O)/C=C(\O)[C@H](C)C[C@H](C)C/C=C/[C@@H](C)[C@@H](O)[C@@H](C)[C@@H](O)C[C@@H]1CC[C@@](C)([C@H]2CC[C@@](C)([C@@H](C)O)O2)O1` [ionomycin, reference compound], for which the “effect on [Ca^2+]i response to extracellular Mg^2+” value in data set [1] was “blocks the response to Mg^2+”.
For the compound `CCC[C@@H]1C[C@@H](C(=O)N[C@@H]([C@H]2O[C@H](SC)[C@H](O)[C@@H](O)[C@H]2O)[C@@H](C)O)N(C)C1` [lincomycin, reference compound], in “net positive charge”, the “net positive charge at pH 7.3” value is given as “+1”. For the same compound, in data set [1], the “effect on intracellular Ca^2+” value was “without effect”.
As to `COc1cccc(C(C)NCCC(c2ccccc2)c2ccccc2)c1` (stereo not drawn) [meta-Methoxyfendiline], in data set [1] (in words), the relative potency entry is “as potent as NPS 467”.
As to `O=C(CC(O)(C(F)(F)F)C(F)(F)F)CC(O)(C(F)(F)F)C(F)(F)F` [molecule 1799, reference compound], the “effect on [Ca^2+]i response to extracellular Mg^2+” value in data set [1] is given as “without effect on the response to Mg^2+”.
As for `COC(=O)C1=C(C)NC(C)=C(C(=O)OC)C1c1ccccc1[N+](=O)[O-]` [nifedipine, reference compound], the “effect on basal [Ca^2+]i or increases evoked by extracellular Ca^2+” value in data set [1] was “None of the dihydropyridines tested”.
On the same count and under the same terms, to `CCOC(=O)C1=C(C)NC(C)=C(C(=O)OC)C1c1cccc([N+](=O)[O-])c1` (stereo not drawn) [nitrendipine, reference compound] belongs “None of the dihydropyridines tested”.
On to `N[C@@H](Cn1oc(=O)[nH]c1=O)C(=O)O` [quisqualate, reference compound], for which the “response to mGluR agonists” value in data set [1] (bovine parathyroid cells, or Xenopus oocytes expressing calcium receptors) is “did not respond”.
Regarding Gentamicin, in the data set “net positive charge”, the “Net (+) Charge” value is on record as “+5” and the “net positive charge at pH 7.3” value is recorded as “+5”.

(Values after US5688938A, “Calcium receptor-active molecules” (priority 1995, dated 1997).)
